We go through one substance from patent publication US8377883B2, “Peptide for anti-angiogenesis and use thereof” (Beijing Institute for Cancer Research, priority 2006, dated 2013).

In test [1] the test system is pig aorta endothelial cells (PAEC). As to the kind of experiment: MTT proliferation of pig aorta endothelial cells. The format is cell-based. Particulars: similar experiment to HUVEC MTT.
Test [2] deals with human lung cancer PG cells. As to the kind of experiment: Tumor suppression in human lung cancer PG tumor-bearing nude mice model. The format is in vivo, Balb/c nude mice. The conditions noted are these: 50 μg/100 μl PBS/injection, angulus oculi medialis vein once every other day, 10 times; vs vehicle, P<0.05. On the procedure: In order to confirm the biological effects of FpAT on the growth of human deriving tumors in nude mice in vivo, a tumor suppression experiment was carried out in this example using human gastric carcinoma BGC-823 cells tumor-bearing nude mice model, human lung cancer PG cells tumor-bearing nude mice model and human colon cancer HT-29 cells tumor-bearing nude mice model.
Twenty 5-week old Balb/c nude mice purchased from Animal Center Of Chinese Academy Of Medical Sciences were inoculated subcutaneously in forelimb with human gastric carcinoma BGC-823 cells (National Institute for the Control of Pharmaceutical and Biological Products) (5×10^6/100 μl/mouse), human lung cancer PG cells (National Institute for the Control of Pharmaceutical and Biological Products) (5×10^6/100 μl/mouse) or human colon cancer HT-29 cells (ATCC® Number: HTB-38™) (5×10^6/100 μl/mouse). On the next day after inoculation, each kind of inoculated cells were divided into 2 groups randomly with 5 mice per group. […] Observation was continued for another 20 days after administration was stopped, and during this period the long and short diameters of the tumors were measured with a vernier caliper once every three days, and the volumes of the tumor mass were calculated according to formula ½×long diameter×short diameter^2. […]

Test [3] relates to human umbilical vein endothelial cells (HUVECs). As to the kind of experiment: Three-dimensional tubular structure formation of HUVECs. The format is cell-based. Particulars: 10, 25, 100 μg/ml PBS; 48, 72, 96 hours. On the procedure: Human umbilical cord samples (obtained from Beijing Obstetrics & Gynecology Hospital) was digested with 0.1% collagenase I (available from GIBCO BRL company), followed by a centrifugation (1000 rpm, 10 minutes) to collect human umbilical vein endothelial cells (HUVECs). After suspended in 20% FCS/RPMI1640, the cells were transferred into plastic bottles for culture in CO2 incubator (37° C., 5% CO2). Twelve hours later, unattached cells were discarded by changing medium, and then the remaining cells were cultured conventionally with the medium changed every 3 days. The cultured HUVECs were digested with 0.04% trypsin-EDTA, and inoculated into 24-well plate at 2×10^4 cells/well; and the vehicle (PBS) and FpAT (10 μg/ml PBS, 25 μg/ml PBS, 100 μg/ml PBS) were added separately, with 3 parallel wells per group.

The test system of test [4] is tumor microvessel. The experiment in a line: Tumor microvessel density (MVD) by factor VIII immunohistochemistry. The format is in vivo, mice. On the procedure:
In order to confirm that the suppression of FpAT on tumor growth in mice in vivo is achieved by suppressing angiogenesis, an analysis of microvessel density in tumor was performed in this example by using tumor mass in Examples 4 and 5.
The tumor masses were fixed with formaldehyde, and then cut into serial section of 3 μm. The paraffin sections were dewaxed to water, and incubated in 3% H2O2 at room temperature for 10 minutes, to which rabbit anti-human factor VIII polyclonal antibody (DAKO company) was added dropwise, and after left at 4° C. overnight; 1:200 sheep anti-rabbit IgG labeled with biotin (Beijing ZhongShan bioengineering Company) was added dropwise, and incubated at 37° C. for 30 minutes. […] Then a visual field with most interstitial blood vessels of cancer nest was chosen, and under a ×400 magnitude field, 3 visual fields were counted by 3 observers individually according to double blind method; wherein individual cells and cell clusters stained brown were observed and taken as one blood vessel, whereas blood vessel cavities and erythrocytes therein were not counted, and blood vessel or vessel cavities in muscular layer larger than 50 μm were excluded. The average value of numbers counted by 3 individuals was taken as MVD (microvessel density) result of this case for a statistics analysis, see Table 4.

Test [5] relates to endothelial cells of mouse aorta. As to the kind of experiment: Growth of primary endothelial cells from mouse aorta segments on Matrigel. The format is cell-based, Balb/c mice. The conditions noted are these: 10, 25, 100 μg/ml PBS; 48 hours, 72 hours. On the procedure:
The Balb/c mice were sacrificed by dislocating the neck and aorta were detached and washed off the blood cells therein with PBS. The cleaned aorta was cut into aorta segments in length of 1 mm, which were planted vertically in 24-well cell culture plate coated with Matrigel gel (BD company); and 10% FCS/RPMI1640 was added, and the plates were placed and cultured in CO2 incubator (37° C., 5% CO2). The vehicle (PBS) and FpAT (10 μg/ml PBS, 25 μg/ml PBS, 100 μg/ml PBS) were added separately, with 3 parallel wells per group, and the cultivation was performed for 48 hours, 72 hours. Then the growth of mouse aorta endothelial cell was observed under microscope.

In test [6] the test system is D2F2 cells (Balb/c mouse-derived breast carcinoma cell). As to the kind of experiment: MTT proliferation of D2F2 cells. The format is cell-based. Particulars: 25 μg/ml PBS, ninety six hours. How it is done: To investigate direct effects of FpAT on tumor cells in vitro, the influence of FpAT on the proliferation of D2F2 cell (Balb/c mouse-derived breast carcinoma cell) was examined using MTT in this example.
D2F2 cells (Mahoney K H, Miller B E, Heppner G H. FACS quantitation of leucine aminopeptidase and acid phosphatase on tumor-associated macrophages from metastatic and nonmetastatic mouse mammary tumors. J Leukoc Biol. 1985 November; 38(5): 573-85.) were cultured conventionally. The cultured D2F2 cells were digested with 0.04% trypsin-EDTA, and inoculated into 96-well plate at 3×10^3 cells/well; after 24 hours of culture, PBS and FpAT (25 μg/ml PBS) were added separately, with 4 parallel wells per group. Ninety six hours later, 20 μl MTT solution of mass concentration of 5 mg/ml was added to each well. After the culture was performed continuously for 4 hours, the original culture medium was discarded and 200 μl DMSO was added to each well, and then it was shaken for 15 minutes. After mixed well, OD value (measured at a wavelength of 570 nm) of each well was measured in a microplate reader, and the cell suppression rates were calculated according to the following formula: cell suppression rate=(mean OD value of blank control group−mean OD value of treated group)/mean OD value of blank control group×100%.

For “H2N-Asp-Ser-Gly-Glu-Gly-Asp-Phe-Leu-Ala-Glu-Gly-Gly-Gly-Val-Arg-COOH (H-DSGEGDFLAEGGGVR-OH; listed as Homo sapiens) [FpAT, fibrinopeptide A truncated, carboxyl terminal 15 amino acids of fibrinopeptide A]”, the “suppression of PAEC proliferation” value in test [1] is recorded as “came to a same conclusion”. Moreover, in test [2], the “growth of human lung cancer PG cells in nude mice (tumor mass)” value is “could suppress the growths”. Moreover, in test [3], the “ability to form a three-dimensional and tubular structure of HUVECs” value was “can suppress specifically”. In test [4] (tumor mass of Examples 4 and 5, 20 visual fields observed totally, PBS group 6.4), the MVD is given as 2.6 Number of micro vessel/visual field. In addition, in test [4] (vs PBS control group, P<0.05), the “growth of microvessel in tumor tissue” value was “suppressed significantly the growth of microvessel”. Also, in test [5], the “growth of vascular endothelial cell of mouse aorta” value is on record as “can suppress specifically the growth”; the “proliferation, migration and ability to form tubular structure of vascular endothelial cell of mouse aorta” value was “suppress notably”. In test [6], the “suppression of D2F2 cell proliferation” value is given as “can not suppress D2F2 cells in vitro”.
